Reference: article PMC4300089, “Structure-Guided Design of Selective Epac1 and Epac2 Agonists” (PLoS Biology, 2015)

Columns and labels:
Epac2^fl = molecular target: T1, Epac2^fl (Mus musculus, UniProt Q9EQZ6); test: Epac activation assay, full length Epac2; type: biochemical; design: made in house
T1 sequence (Q9EQZ6 1-993 isoform Q9EQZ6-3): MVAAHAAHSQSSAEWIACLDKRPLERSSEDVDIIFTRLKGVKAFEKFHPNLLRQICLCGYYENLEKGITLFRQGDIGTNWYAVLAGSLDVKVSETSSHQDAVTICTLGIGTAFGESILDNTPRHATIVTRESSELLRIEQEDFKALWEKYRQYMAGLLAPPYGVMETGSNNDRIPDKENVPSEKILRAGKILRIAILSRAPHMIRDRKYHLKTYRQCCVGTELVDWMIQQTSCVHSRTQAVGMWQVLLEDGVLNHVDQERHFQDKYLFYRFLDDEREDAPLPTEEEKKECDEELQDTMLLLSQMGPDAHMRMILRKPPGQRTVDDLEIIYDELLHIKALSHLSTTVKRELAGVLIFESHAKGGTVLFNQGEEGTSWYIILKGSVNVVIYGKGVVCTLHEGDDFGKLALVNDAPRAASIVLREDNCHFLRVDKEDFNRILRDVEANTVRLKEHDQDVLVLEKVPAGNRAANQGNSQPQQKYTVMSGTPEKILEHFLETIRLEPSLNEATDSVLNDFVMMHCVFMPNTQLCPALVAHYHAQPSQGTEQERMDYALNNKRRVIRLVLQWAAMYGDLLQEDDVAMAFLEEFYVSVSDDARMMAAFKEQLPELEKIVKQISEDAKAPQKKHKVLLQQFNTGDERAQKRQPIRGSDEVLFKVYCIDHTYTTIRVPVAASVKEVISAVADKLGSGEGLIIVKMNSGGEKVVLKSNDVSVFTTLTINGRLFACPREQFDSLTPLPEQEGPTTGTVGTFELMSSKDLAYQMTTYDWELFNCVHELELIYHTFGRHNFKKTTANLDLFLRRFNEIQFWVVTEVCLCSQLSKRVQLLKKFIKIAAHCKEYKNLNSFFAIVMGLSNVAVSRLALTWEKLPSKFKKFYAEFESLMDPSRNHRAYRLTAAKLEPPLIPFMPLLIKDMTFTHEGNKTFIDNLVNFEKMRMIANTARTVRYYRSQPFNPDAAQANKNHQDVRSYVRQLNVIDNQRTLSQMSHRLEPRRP
Procedure: Murine Epac2 was used as all previous structural studies were performed with it.
The activity of Epac was determined by a fluorescence assay. […] The fluorescence intensity of Rap1B•mGDP is approximately twice that of free mGDP, and thus, nucleotide exchange can be observed as a decay in fluorescence upon the addition of excess unlabeled GDP.

Epac1 = molecular target: T2, Epac1 (Homo sapiens, UniProt O95398); test: Cellular Epac activity: Rap•GTP levels in U2OS cells stably expressing Epac1; type: cell-based
T2 construct: pBabe-Flag-Epac1 (Epac1, homo sapiens, amino acids 1–881); expressed in transfected cells; host or cells: U2OS
T2 sequence (O95398 1-881 isoform O95398-3): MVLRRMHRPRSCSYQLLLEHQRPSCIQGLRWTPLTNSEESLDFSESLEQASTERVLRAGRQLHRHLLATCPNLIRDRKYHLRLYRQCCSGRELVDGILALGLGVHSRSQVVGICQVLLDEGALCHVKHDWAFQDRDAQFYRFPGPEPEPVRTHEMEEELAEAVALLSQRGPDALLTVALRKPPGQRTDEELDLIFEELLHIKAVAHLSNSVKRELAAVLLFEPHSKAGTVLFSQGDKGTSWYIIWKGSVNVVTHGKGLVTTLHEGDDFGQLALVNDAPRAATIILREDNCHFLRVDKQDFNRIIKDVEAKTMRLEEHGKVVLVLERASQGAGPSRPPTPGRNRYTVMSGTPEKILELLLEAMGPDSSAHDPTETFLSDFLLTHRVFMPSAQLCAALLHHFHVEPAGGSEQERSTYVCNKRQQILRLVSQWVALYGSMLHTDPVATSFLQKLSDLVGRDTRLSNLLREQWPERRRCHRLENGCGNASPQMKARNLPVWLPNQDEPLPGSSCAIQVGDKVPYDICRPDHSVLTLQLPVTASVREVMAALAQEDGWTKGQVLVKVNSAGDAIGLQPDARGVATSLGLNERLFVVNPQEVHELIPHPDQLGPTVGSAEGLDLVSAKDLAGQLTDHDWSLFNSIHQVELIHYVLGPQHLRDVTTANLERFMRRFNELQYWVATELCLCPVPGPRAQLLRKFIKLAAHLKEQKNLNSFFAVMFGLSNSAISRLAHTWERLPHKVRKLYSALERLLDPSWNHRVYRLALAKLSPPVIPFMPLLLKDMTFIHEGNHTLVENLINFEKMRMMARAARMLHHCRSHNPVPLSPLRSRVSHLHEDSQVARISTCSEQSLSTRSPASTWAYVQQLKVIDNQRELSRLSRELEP
Procedure: (§1) Rap•GTP levels were determined by precipitating GTP-bound Rap specifically from cell lysates and subsequent western Blotting with an α-Rap antibody (Santa Cruz Biotechnology). To generate stable cell lines, U2OS cells were transfected with pBabe-Flag-Epac1 (Epac1, homo sapiens, amino acids 1–881) or pBabe-Flag-Epac2 (Epac2, mus musculus, amino acids 1–993), selected for Epac expression and maintained under selection with 2 mg/l puromycin. The cells were cultured according to standard protocols. The activity of PKA was determined by western blotting with a monoclonal α-VASP antibody (BD Transduction Laboratories). Blots were developed by enhanced chemiluminescence (ECL) and the use of X-ray films; for quantification films were scanned. The intensities of the Rap•GTP bands and the upper band of VASP (P-VASP) were determined for each condition in ImageJ and normalized to the stimulation with forskolin and IBMX for each blot.

Epac2 = molecular target: T3, Epac2 (Mus musculus, UniProt Q9EQZ6); test: Cellular Epac activity: Rap•GTP levels in U2OS cells stably expressing Epac2; type: cell-based, homo sapiens
T3 construct: pBabe-Flag-Epac2 (Epac2, mus musculus, amino acids 1–993); expressed in transfected cells; host or cells: U2OS
T3 sequence (Q9EQZ6 1-993 isoform Q9EQZ6-3): T1 sequence (Q9EQZ6 1-993 isoform Q9EQZ6-3)
Procedure: as §1

[1] = relative to induction with forskolin and IBMX, Fig. 6C

## Cc1ccc(CSc2nc3c(N)ncnc3n2[C@@H]2O[C@@H]3CO[P@](O)(=S)O[C@H]3[C@H]2O)cc1 [S-230, Sp-8-pMeBnT-cAMPS]
Epac2^fl; 0.2 μM compound
  kobs: 2.5e-05 s⁻¹
Epac2^fl; 0.3 μM compound
  kobs: 2.9e-05 s⁻¹
Epac2^fl; 0.4 μM compound
  kobs: 3.1e-05 s⁻¹
Epac2^fl; 0.5 μM compound
  kobs: 3.3e-05 s⁻¹
Epac2^fl; 0.6 μM compound
  kobs: 3.6e-05 s⁻¹
Epac2^fl; 0.7 μM compound
  kobs: 4e-05 s⁻¹
Epac2^fl; 0.8 μM compound
  kobs: 4.1e-05 s⁻¹
Epac2^fl; 1 μM compound
  kobs: 4.7e-05 s⁻¹
Epac2^fl; 2 μM compound
  kobs: 8.9e-05 s⁻¹
Epac2^fl; 3 μM compound
  kobs: 0.000128 s⁻¹
Epac2^fl; 4 μM compound
  kobs: 0.000139 s⁻¹
Epac2^fl; 5 μM compound
  kobs: 0.000145 s⁻¹
Epac2^fl; 6 μM compound
  kobs: 0.000194 s⁻¹
Epac2^fl; 7 μM compound
  kobs: 0.000209 s⁻¹
Epac2^fl; 8 μM compound
  kobs: 0.000213 s⁻¹
Epac2^fl; 10 μM compound
  kobs: 0.000238 s⁻¹
Epac2^fl; 20 μM compound
  kobs: 0.000358 s⁻¹
Epac2^fl; 30 μM compound
  kobs: 0.000429 s⁻¹
Epac2^fl; 40 μM compound
  kobs: 0.000467 s⁻¹
Epac2^fl; 50 μM compound
  kobs: 0.000491 s⁻¹
Epac2^fl; 60 μM compound
  kobs: 0.000519 s⁻¹
Epac2^fl; 70 μM compound
  kobs: 0.00055 s⁻¹
Epac2^fl; 80 μM compound
  kobs: 0.000558 s⁻¹
Epac2^fl; 100 μM compound
  kobs: 0.000582 s⁻¹
Epac2^fl; 200 μM compound
  kobs: 0.000643 s⁻¹
Epac2^fl; 400 μM compound
  kobs: 0.00061 s⁻¹
Epac2^fl; 600 μM compound
  kobs: 0.000556 s⁻¹
Epac2^fl; 800 μM compound
  kobs: 0.000527 s⁻¹

## COC1C2OP(=O)(O)OCC2OC1n1c(Sc2ccc(Cl)cc2)nc2c(N)ncnc21 [D-007, 8-pCPT-2′-O-Me-cAMP, reference compound]
Epac1
  activation of Epac1 in cells: strongly activated
Epac1; [1]
  rel. RapGTP: 1.65
Epac2
  activation of Epac2 in cells: only minor effects
Epac2; [1]
  rel. RapGTP: 0.3431
Epac2^fl; 0.3 μM compound
  kobs: 1.59e-05 s⁻¹
Epac2^fl; 0.5 μM compound
  kobs: 1.62e-05 s⁻¹
Epac2^fl; 0.8 μM compound
  kobs: 1.75e-05 s⁻¹
Epac2^fl; 1 μM compound
  kobs: 1.95e-05 s⁻¹
Epac2^fl; 2 μM compound
  kobs: 2.18e-05 s⁻¹
Epac2^fl; 3 μM compound
  kobs: 2.37e-05 s⁻¹
Epac2^fl; 4 μM compound
  kobs: 2.69e-05 s⁻¹
Epac2^fl; 5 μM compound
  kobs: 2.86e-05 s⁻¹
Epac2^fl; 6 μM compound
  kobs: 3.39e-05 s⁻¹
Epac2^fl; 7 μM compound
  kobs: 3.51e-05 s⁻¹
Epac2^fl; 8 μM compound
  kobs: 3.74e-05 s⁻¹
Epac2^fl; 10 μM compound
  kobs: 4.22e-05 s⁻¹
Epac2^fl; 20 μM compound
  kobs: 5.69e-05 s⁻¹
Epac2^fl; 30 μM compound
  kobs: 7e-05 s⁻¹
Epac2^fl; 40 μM compound
  kobs: 7.51e-05 s⁻¹
Epac2^fl; 50 μM compound
  kobs: 7.76e-05 s⁻¹
Epac2^fl; 60 μM compound
  kobs: 8.43e-05 s⁻¹
Epac2^fl; 70 μM compound
  kobs: 8.92e-05 s⁻¹
Epac2^fl; 80 μM compound
  kobs: 9.01e-05 s⁻¹
Epac2^fl; 100 μM compound
  kobs: 9.57e-05 s⁻¹
Epac2^fl; 200 μM compound
  kobs: 9.52e-05 s⁻¹
Epac2^fl; 400 μM compound
  kobs: 9.57e-05 s⁻¹
Epac2^fl; 600 μM compound
  kobs: 9.06e-05 s⁻¹
Epac2^fl; 800 μM compound
  kobs: 8.29e-05 s⁻¹
Epac2^fl; Epac2
  ability to reach half-maximal cAMP activity: reaches half-maximal cAMP activity with Epac2 only under saturating conditions
Epac2^fl; Epac2^fl
  AC50: 16 µM
Epac2^fl; Epac2^fl, maximal activity relative to cAMP
  Rel. kmax: 0.4
